Experimental data as given in patent publication US20250243180A1, “TARGETED PROTEIN DEGRADATION” (Monte Rosa Therapeutics AG, priority 2023, published 2025).
Where two headings read alike, the source gives them in different places.

Columns and labels:
NEK7 = NEK7 (Homo sapiens (Human), UniProt Q8TDX7+Q96SW2); assay: NEK7 NanoBiT degradation assay in Cal51 NEK7 NanoBiT cell line; type: cell-based; conditions: Cal51 NEK7 NanoBiT cells, 24 hours; for Dmax: CAL-51
Outline: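 Cal51 cells with CRISPR knock-in HiBiT-tagged endogenous NEK7 plus stable LgBiT, in live-cell Endurazine medium, seeded 16 h before dosing. Compounds at final 1 μM to 0.05 nM for 24 h at 37 °C, then luminescence read. Response normalized to plate controls and fitted with a 4-parameter logistic giving EC50.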

CRBN-DDB1 = CRBN-DDB1 (Homo sapiens (Human), UniProt Q96SW2); assay: Compound binding to CRBN by HTRF assay
Sequence of CRBN-DDB1 (Q96SW2 whole entry): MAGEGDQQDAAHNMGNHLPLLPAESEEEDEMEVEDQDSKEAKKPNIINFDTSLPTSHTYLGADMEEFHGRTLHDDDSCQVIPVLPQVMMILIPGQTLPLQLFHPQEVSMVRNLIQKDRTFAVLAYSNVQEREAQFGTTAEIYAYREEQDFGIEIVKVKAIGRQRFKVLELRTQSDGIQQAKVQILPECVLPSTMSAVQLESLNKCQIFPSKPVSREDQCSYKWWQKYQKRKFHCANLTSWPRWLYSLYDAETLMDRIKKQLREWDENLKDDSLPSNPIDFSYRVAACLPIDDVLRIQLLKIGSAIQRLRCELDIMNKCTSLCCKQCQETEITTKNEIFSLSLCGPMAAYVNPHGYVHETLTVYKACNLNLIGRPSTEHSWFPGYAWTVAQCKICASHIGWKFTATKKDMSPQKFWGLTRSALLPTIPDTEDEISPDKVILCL
Sequence of CRBN-DDB1 (Q16531 whole entry partner): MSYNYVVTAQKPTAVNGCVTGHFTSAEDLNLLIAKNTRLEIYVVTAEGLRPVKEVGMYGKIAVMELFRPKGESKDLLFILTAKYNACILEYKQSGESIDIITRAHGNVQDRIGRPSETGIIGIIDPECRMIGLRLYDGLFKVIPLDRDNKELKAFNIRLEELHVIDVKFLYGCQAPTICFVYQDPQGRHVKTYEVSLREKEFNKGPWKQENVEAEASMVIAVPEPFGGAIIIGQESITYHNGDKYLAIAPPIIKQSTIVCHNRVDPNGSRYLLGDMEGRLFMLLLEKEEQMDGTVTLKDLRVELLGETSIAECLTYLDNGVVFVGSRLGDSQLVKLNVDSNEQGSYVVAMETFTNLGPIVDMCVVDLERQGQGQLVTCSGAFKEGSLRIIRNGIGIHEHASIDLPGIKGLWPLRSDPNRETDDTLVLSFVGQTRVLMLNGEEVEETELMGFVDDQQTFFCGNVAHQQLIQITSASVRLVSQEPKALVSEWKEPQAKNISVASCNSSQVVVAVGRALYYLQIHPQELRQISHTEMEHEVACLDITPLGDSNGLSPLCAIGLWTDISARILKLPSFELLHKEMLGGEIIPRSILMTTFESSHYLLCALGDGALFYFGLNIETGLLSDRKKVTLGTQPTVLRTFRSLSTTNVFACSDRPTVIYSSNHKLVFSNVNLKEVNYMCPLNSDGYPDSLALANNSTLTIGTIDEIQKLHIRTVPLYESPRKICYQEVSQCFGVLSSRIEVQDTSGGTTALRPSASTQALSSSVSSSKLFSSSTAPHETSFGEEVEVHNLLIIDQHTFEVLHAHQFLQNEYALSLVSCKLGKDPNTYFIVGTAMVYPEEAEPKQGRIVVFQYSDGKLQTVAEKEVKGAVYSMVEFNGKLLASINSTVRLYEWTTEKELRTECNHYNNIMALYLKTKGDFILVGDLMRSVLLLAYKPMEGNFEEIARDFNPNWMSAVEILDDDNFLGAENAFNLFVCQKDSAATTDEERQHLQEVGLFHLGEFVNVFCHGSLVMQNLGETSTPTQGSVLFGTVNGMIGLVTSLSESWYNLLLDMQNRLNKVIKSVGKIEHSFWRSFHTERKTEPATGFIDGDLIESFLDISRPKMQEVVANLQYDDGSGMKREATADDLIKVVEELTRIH
Outline: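 HTRF displacement of Cy5-thalidomide probe (100 nM) from His-tagged CRBN-DDB1 (2.5 nM) with anti-His terbium cryptate, in HEPES/NaCl/TCEP/EDTA/Tween20 buffer; 11-point 1:3 dilution series, 30 min at ambient temperature. Signal (665/620 nm) normalized to lenalidomide and DMSO controls; EC50 fitted, Ki by Cheng-Prusoff from geometric mean EC50.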

[1] = NEK7 degradation, read-out: NanoBiT Dmax
[2] = NEK7 degradation, read-out: NanoBiT DC50

Sequence of NEK7 (Q8TDX7 whole entry): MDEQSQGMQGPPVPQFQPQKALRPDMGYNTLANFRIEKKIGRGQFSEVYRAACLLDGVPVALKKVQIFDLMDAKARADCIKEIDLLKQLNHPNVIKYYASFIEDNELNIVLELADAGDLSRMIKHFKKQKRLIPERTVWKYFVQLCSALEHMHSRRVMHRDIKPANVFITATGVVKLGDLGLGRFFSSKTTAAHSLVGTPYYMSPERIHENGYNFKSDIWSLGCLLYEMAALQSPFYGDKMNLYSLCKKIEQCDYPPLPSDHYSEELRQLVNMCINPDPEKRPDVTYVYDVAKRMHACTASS
Sequence of NEK7 (Q96SW2 whole entry): as the sequence (Q96SW2 whole entry) above
Sequence of NEK7 (Q16531 2-1140 partner): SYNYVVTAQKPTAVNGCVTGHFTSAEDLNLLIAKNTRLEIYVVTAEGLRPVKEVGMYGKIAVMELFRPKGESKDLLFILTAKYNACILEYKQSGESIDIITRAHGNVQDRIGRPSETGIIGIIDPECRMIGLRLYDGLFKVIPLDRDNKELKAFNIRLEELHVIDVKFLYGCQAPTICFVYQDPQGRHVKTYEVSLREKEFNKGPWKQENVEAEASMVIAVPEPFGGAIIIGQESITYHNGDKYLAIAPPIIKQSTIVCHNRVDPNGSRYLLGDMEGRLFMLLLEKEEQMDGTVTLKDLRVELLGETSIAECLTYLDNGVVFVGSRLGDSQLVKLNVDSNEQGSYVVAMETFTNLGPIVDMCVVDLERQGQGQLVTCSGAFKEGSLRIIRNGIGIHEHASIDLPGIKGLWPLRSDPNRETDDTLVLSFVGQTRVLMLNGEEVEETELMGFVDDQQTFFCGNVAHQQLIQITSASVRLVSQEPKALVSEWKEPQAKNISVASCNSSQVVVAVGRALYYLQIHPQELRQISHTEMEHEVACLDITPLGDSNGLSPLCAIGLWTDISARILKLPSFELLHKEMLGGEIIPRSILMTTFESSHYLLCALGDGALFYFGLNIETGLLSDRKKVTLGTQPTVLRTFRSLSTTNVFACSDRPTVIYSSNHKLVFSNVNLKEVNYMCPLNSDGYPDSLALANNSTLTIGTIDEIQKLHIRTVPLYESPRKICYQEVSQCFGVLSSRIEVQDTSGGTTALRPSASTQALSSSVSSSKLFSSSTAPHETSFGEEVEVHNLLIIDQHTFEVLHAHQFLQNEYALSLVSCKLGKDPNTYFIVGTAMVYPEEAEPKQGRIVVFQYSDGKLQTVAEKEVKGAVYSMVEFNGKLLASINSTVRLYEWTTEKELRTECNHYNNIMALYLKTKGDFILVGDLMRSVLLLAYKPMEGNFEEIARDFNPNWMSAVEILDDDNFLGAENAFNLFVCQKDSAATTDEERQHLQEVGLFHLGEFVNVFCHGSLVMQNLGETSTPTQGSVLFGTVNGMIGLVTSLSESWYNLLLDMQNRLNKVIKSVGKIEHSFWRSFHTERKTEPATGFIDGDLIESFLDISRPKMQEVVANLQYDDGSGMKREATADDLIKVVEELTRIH

Compound	Dmax (NEK7; read-out: NEK7 NanoBiT Dmax) [%]	Dmax (NEK7; [1]) [%]	DC50 (NEK7; read-out: NEK7 NanoBiT DC50) [nM]	DC50 (NEK7; [2]) [nM]	EC50 (CRBN-DDB1) [nM]	EC50 (CRBN-DDB1; HTRF class, Cereblon binding) [nM]
CC(C)(C(=O)NCc1cc(F)c(C2CCC(=O)NC2=O)c(Cl)c1)c1ccc(OC(F)F)nc1 (stereo not drawn) [Compound 267]	94	> 75	3	≤ 100	110	100 to 1000
COc1conc1C(C)(C)C(=O)NCc1cc(F)c(C2CCC(=O)NC2=O)c(Cl)c1 (stereo not drawn) [Compound 268]	88	> 75	11	≤ 100	120	100 to 1000
CC(C)(C(=O)NCc1cc(F)c(C2CCC(=O)NC2=O)c(Cl)c1)c1ccc(OCC(F)F)nc1 (stereo not drawn) [Compound 269, N-(3-chloro-4-(2,6-dioxopiperidin-3-yl)-5-fluorobenzyl)-2-(6-(2,2-difluoroethoxy)pyridin-3-yl)-2-methylpropanamide]	95	> 75	1	≤ 100	100	100 to 1000
Cc1cnc(C(C)(C)C(=O)NCc2cc(F)c(C3CCC(=O)NC3=O)c(Cl)c2)o1 (stereo not drawn) [Compound 270, N-(3-chloro-4-(2,6-dioxopiperidin-3-yl)-5-fluorobenzyl)-2-methyl-2-(5-methyloxazol-2-yl)propanamide]	72	50 to 75	73	≤ 100	190	100 to 1000
Cc1cnc(C(C)(C)C(=O)NCc2cc(C)c(C3CCC(=O)NC3=O)c(Cl)c2)nc1 (stereo not drawn) [Compound 271]	68	50 to 75	213	100 to 1000	520	100 to 1000
CC(C)(C(=O)NCc1cc(F)c(C2CCC(=O)NC2=O)c(Cl)c1)c1ccc(OC(F)(F)F)nn1 (stereo not drawn) [Compound 272]	57	50 to 75	312	100 to 1000	230	100 to 1000
Cc1ccc(C(C)(C)C(=O)NCc2cc(F)c(C3CCC(=O)NC3=O)c(Cl)c2)nn1 (stereo not drawn) [Compound 275]	61	50 to 75	190	100 to 1000	210	100 to 1000
CC(C)(C(=O)NCc1cc(F)c(C2CCC(=O)NC2=O)c(Cl)c1)c1ccc(OC(F)F)nn1 (stereo not drawn) [Compound 276]	79	> 75	33	≤ 100	190	100 to 1000
CC(F)(F)c1ccc(C(C)(C)C(=O)NCc2cc(F)c(C3CCC(=O)NC3=O)c(Cl)c2)nn1 (stereo not drawn) [Compound 277]	61	50 to 75	155	100 to 1000	180	100 to 1000
CC(C)(C(=O)NCc1cc(F)c(C2CCC(=O)NC2=O)c(Cl)c1)c1nocc1C(F)(F)F (stereo not drawn) [Compound 278]	71	50 to 75	76	≤ 100	190	100 to 1000
Cc1conc1C(C)(C)C(=O)NCc1cc(F)c(C2CCC(=O)NC2=O)c(Cl)c1 (stereo not drawn) [Compound 279]	54	50 to 75	672	100 to 1000	350	100 to 1000
CC(C)(C(=O)NCc1cc(F)c(C2CCC(=O)NC2=O)c(Cl)c1)c1ccc(C(F)F)nn1 (stereo not drawn) [Compound 280]	60	50 to 75	143	100 to 1000	290	100 to 1000
Cc1ncc(C(C)(C)C(=O)NCc2cc(F)c(C3CCC(=O)NC3=O)c(Cl)c2)o1 (stereo not drawn) [Compound 281]	67	50 to 75	179	100 to 1000	260	100 to 1000
Cc1ncc(C(C)(C)C(=O)NCc2cc(Cl)c(C3CCC(=O)NC3=O)c(Cl)c2)o1 (stereo not drawn) [Compound 282]	78	> 75	26	≤ 100	110	100 to 1000
